Laboratory results from patent US20210170052A1, “THERAPEUTIC METHODS AND COMPOSITIONS FOR SOLID DELIVERY” (Presage Biosciences, Inc., priority 2010, published 2021).

Legend:
mouse tumor = assay: Spatially restricted injection into a mouse tumor with indicator dyes (apoptosis signal imaging); type: in vivo; details: excitation 640 nm, emission 720 nm of the dye, versus control
Description: FIG. 14 depicts the use of various indicator dyes according to the method, to monitor spatially restricted delivery of compounds and resulting localized effects on regions of a tumor. A mouse tumor was injected with 1. doxorubicin; and 2. a control. Panel A illustrates excitation at 640 nm and emission at 800 nm of the dye. Panel B illustrates the doxorubicin signal (3.) observed after excitation at 500 nm and emission at 600 nm of doxorubicin. Panel C illustrates an apoptosis signal (4.) observed after excitation at 640 nm and emission at 720 nm of the dye.

lymphoma tumor = assay: Doxorubicin delivered to a lymphoma tumor using a porous tube; fluorescence and brightfield microscopy of tumor slices; type: in vivo; details: porous tube delivery, three tumor depths
From the text: Doxorubicin was delivered to a lymphoma tumor using a porous tube of the method. The tumor was then excised and sectioned. […] Regions of doxorubicin fluorescence and cell death are localized to a zone within the tumor slice, reflecting spatially constrained doxorubicin delivery.

[1] = tested on: Intracranial medulloblastoma model (conditional Patchedl null) mice; assay: Survival of intracranial medulloblastoma model mice; type: in vivo, mouse; details: injected daily with 20 mg/kg, monitored for 50 days, versus vehicle only
Description: The results of the in vivo experiment depicted in FIG. 12 predicted that Shh antagonists would have a positive effect on a mouse model of cancer. Intracranial medulloblastoma model (conditional Patchedl null) mice used in this experiment develop medulloblastoma with an early onset and 100% penetrance. Accordingly, mice were injected daily with 20 mg/kg of either A) vehicle plus IPI-926 (n=12); or B) vehicle only (n=11). The mice were monitored for 50 days for survival, and the results depicted in FIG. 13.

| Structure (SMILES) | apoptosis signal (mouse tumor) | cell death in tumor slices (lymphoma tumor) | survival [1] |
| --- | --- | --- | --- |
| COc1cccc2c1C(=O)c1c(O)c3c(c(O)c1C2=O)C[C@@](O)(C(=O)CO)C[C@@H]3O[C@H]1C[C@H](N)[C@H](O)[C@H](C)O1 [Doxorubicin] | apoptosis overlaps with the region that received doxorubicin | Cell death was observed in a localized area | – |
| CC1=C2C[C@H]3[C@@H](CC[C@@H]4C[C@H](NS(C)(=O)=O)CC[C@@]43C)[C@@H]2CC[C@@]2(C1)O[C@@H]1C[C@H](C)CN[C@H]1[C@H]2C [IPI-926] | – | – | significantly increased survival |
